Test results published in US7763626B2, “Compositions and method for enhancing the therapeutic activity of opiods in treatment of pain” (Trustees of Dartmouth College, priority 2004, dated 2010).

Assays:
Assay type in all cases: in vivo, rat
Male Sprague-Dawley rats [1] = assay: Paw pressure test (Analgesy-Meter), morphine withdrawal-induced mechanical hyperalgesia
Description: (§1) Male Sprague-Dawley rats (175-200 grams, Harlan, Indianapolis, Ind.) were divided into two groups (n=8 per group). Rats received subcutaneous injections of either saline or morphine (10 mg/kg; Sigma, St. Louis, Mo.) twice daily at 0800 to 0900 and 1600-1700 hour for 5 days in order to induce opioid tolerance. Chronic morphine withdrawal-induced hyperalgesia and allodynia were assessed in the animals 16 hours after the last injection of morphine. Following the recording of morphine withdrawal-induced hyperalgesia and allodynia, animals were treated with morphine (5 microgram) acutely via lumbar intrathecal injection to study the expression of morphine tolerance. Acute analgesic activity or intrathecal morphine in morphine-tolerant and chronic aline-treated rats were evaluated by mechanical (Analgesy-Meter) and thermal (tail-flick) test paradigms. Behaviors recorded prior to the acute administration of intrathecal morphine served as the basal latency measures.
(§2) With an understanding of the effects of morphine alone, separate groups of rats (n=8) received with saline or morphine (10 mg/kg subcutaneously, twice daily for 5 days) and also received once daily injections (at 1100 to 1200 hour) of propentofylline (1 and 10 micrograms) or saline via direct lumbar puncture during the induction of morphine tolerance. Again, chronic morphine withdrawal-induced hyperalgesia and allodynia were assessed in the animals 16 hours after the last subcutaneous morphine injection. Following the recording of morphine withdrawal-induced hyperalgesia and allodynia, animals were treated with morphine (5 micrograms) acutely via lumbar puncture to study the expression of morphine tolerance. As before, the acute analgesic activity of intrathecal morphine in morphine-tolerant and saline-injected rats was evaluated by mechanical (Analgesy-Meter) and thermal (tail-flick) test paradigms. Behavior recorded prior to the acute administration of intrathecal morphine served as the basal latency.
(§3) In blinded testing, rats were subjected to sequential series of 10 tactile stimulations to the dorsal surface of the ipsilateral hindpaw using […] von Frey filaments (Stoelting Co., WoodDale, Ill.) sequentially. The number of foot withdrawals to this normally non-noxious stimulus determined mechanical allodynia. Mechanical sensitivity was assessed by recording the total number of responses elicited during three successive trials separated by at least 10 minutes. The pressure required to elicit paw withdrawal, the paw pressure threshold was determined.

Male Sprague-Dawley rats [2] = assay: Morphine tolerance model, acute intrathecal morphine evaluated by thermal and mechanical test paradigms; details: chronic subcutaneous morphine 10 mg/kg twice daily for 5 days; noxious thermal and mechanical testing paradigms
Description: as §1
as §2, with “Following the recording of morphine withdrawal-induced hyperalgesia and allodynia, animals were treated with morphine (5 micrograms) acutely via lumbar puncture to study the expression of morphine tolerance.” left out
as §3
Thermal nociceptive thresholds were evaluated by the hot water tail-flick test that has been described previously (Bian, D. et al. 1999. Brain Res. 831:55-63). […] Again, the total number of responses elicited during three successive trials separated by at least 10 minutes was recorded and then expressed as the % maximal possible effect. […]

IL-6 mRNA = assay: RNase protection assay, cytokine mRNA at L5 lumbar spinal cord; details: ratio of expression compared with saline-treated animals (=1), propentofylline 10 μg intrathecally 5 days, morphine 10 mg/kg twice daily 5 days
Description: (§6) After behavioral testing for reactions to the combined treatment, rats were sacrificed and decapitated. An 18-gauge needle was inserted into the caudal end of the vertebral column and the spinal cord was expelled with ice-cold phosphate-buffered saline. The spinal cord was frozen immediately on dry ice and stored at −80° C. until homogenization. The L5 lumbar spinal cord was isolated from the intact frozen cord at the time of mRNA and protein quantification. Total RNA was isolated from the L5 spinal cord by the TRIzol extraction method (Invitrogen Corporation, Carlsbad, Calif).
(§7) Assessment of the temporal cytokine mRNA expression in the L5 lumber spinal cord was performed using a Ribonuclease Protection Assay technique. A Multiprobe RPAse kit was used (Pharmingen, San Diego, Calif.). Total RNA (15 μg) was hybridized to ^32P-labeled antisense RNA probes transcribed using the rat cytokine-1 (rCK-1) multiprobe template set resulting in double-stranded target RNA. After Rnase digestion, protected RNA and probe were resolved on a denaturing polyacrylamide gel and visualized by overnight autoradiography. Quantitative image analysis was employed to compare mRNA levels based on band intensities for each cytokine. The intensity of each band was measured using image analysis software and assigned an arbitrary unit based on the measured intensity levels. The value for the normalized quantity for each band was obtained by dividing by the L32 house-keeping gene control. Individual mRNA concentration was calculated as the ratio of the expression compared with saline-treated animals in which normal values were weighted as 1.

GFAP mRNA = assay: Real-time PCR of GFAP mRNA at L5 lumbar spinal cord; details: compared to saline-treated controls; morphine 10 mg/kg twice daily 5 days, or propentofylline 10 micrograms intrathecally 5 days in saline-treated rats
Description: (§4) Total RNA was treated with DNase I (Ambion, Austin, Tex.) to remove DNA contamination before cDNA synthesis. The reverse transcription (RT) was carried out in a 100 μl total reaction volume containing RT buffer, dNTPs, multiscribe reverse transcriptase, RNase-free water and 10 μg of DNase-treated total RNA. The RT reaction was carried out at 25° C. for 10 minutes, 37° C. for 120 minutes, and 95° C. for 5 minutes. Real-time PCR analysis was performed using gene-specific primers and probes that were designed and blasted against GENBANK to confirm their species and gene specificity. […] The real-time PCR reactions were carried out using Platinum Taq DNA polymerase, 20 mM Tris HCl (pH 8.4), 50 mM KCl, 3 mM MgCl2, 200 μM dGTP, dCTP, and dATP, 400 μM of dUTP and 1 U uracyl DNA glycosylase (UDG), 900 nM forward and reverse primers, 300 nM TaqMan probe, and 10-fold dilution of cDNA (50 ng) from the RT step. Primers and probes for glyceraldehyde-3-phosphate (GADPH), GFAP and Mac-1 were obtained form Applied Biosystems (LaJolla, Calif.). The relative standard curves generated by plotting the threshold value versus the log of the amount of total cDNA added to the reaction (1-10000 pg) were used to compare the relative amount of target genes from control and chronic morphine-treated animals.

Male Sprague-Dawley rats [3] = assay: Hot water tail-flick test, morphine withdrawal-induced thermal hyperalgesia
Description: as §1, §2
Thermal nociceptive thresholds were evaluated by the hot water tail-flick test that has been described previously (Bian, D. et al. 1999. Brain Res. 831:55-63). The test consisted of immersing the tail of the rats in water maintained at 49° C. and then recording the latency to a rapid flick. A 15 second cut-off time was used. Again, the total number of responses elicited during three successive trials separated by at least 10 minutes was recorded and then expressed as the % maximal possible effect. The tester was again blinded to the test groups.

Mac-1 mRNA = assay: Real-time PCR of Mac-1 mRNA at L5 lumbar spinal cord; details: compared to saline-treated controls; morphine 10 mg/kg twice daily 5 days, or propentofylline 10 micrograms intrathecally 5 days in saline-treated rats
Description: as §4

Male Sprague-Dawley rats [4] = assay: Mechanical allodynia (von Frey filaments), morphine withdrawal
Description: as §1, §2
Mechanical sensitivity was measured as the frequency of foot withdrawals elicited by a defined mechanical stimulus. Each rat, under unrestrained conditions, was placed beneath an inverted, ventilated Plexiglas cage upon an elevated aluminum screen surface with 1 cm mesh openings. Animals had been previously acclimated to the environment and the experimenter.
as §3

IL-1β mRNA = assay: RNase protection assay, cytokine mRNA at L5 lumbar spinal cord; details: ratio of expression compared with saline-treated animals (=1), propentofylline 10 μg intrathecally 5 days, morphine 10 mg/kg twice daily 5 days
Description: as §6, §7

IL-6 protein = assay: Cytokine protein estimation by ELISA at L5 spinal cord; details: ELISA, propentofylline 10 μg intrathecally 5 days, morphine 10 mg/kg twice daily 5 days
Description: (§5) Quantitative determination of IL-1β, TNF-α and IL-6 protein was performed on the L5 spinal cord of the rats. […] Briefly, weighed sections of L5 spinal cord were homogenized in a homogenization buffer consisting of a protease inhibitor using the a Power Gen 125 tissue tearer (Fisher Scientific, Suwanee, Ga.). Samples were spun at 20,000×g for 30 minutes at 4° C. Supernatant was aliquoted and stored at −80° C. for future protein quantification. IL-1β and TNF-α (R&D Systems, Minneapolis, Minn.) and IL-6 (Biosource, Camarillo, Calif.) protein concentrations were determined utilizing the quantitative sandwich enzyme immunoassay.

TNF-α protein = assay: as above; details: ELISA, propentofylline 10 μg intrathecally 5 days, morphine 10 mg/kg twice daily 5 days
Description: as §5

IL-1β protein = assay: as above; details: ELISA, propentofylline 10 μg intrathecally 5 days, morphine 10 mg/kg twice daily 5 days
Description: as §5

[5] = 16 hours after last injection, morphine 10 mg/kg s.c. twice daily 5 days and/or propentofylline 10 micrograms intrathecally once daily 5 days
[6] = 16 hours after last morphine injection (10 mg/kg s.c. twice daily 5 days), propentofylline 1 and 10 micrograms intrathecally for 5 days during induction of tolerance

CN1CC[C@]23c4c5ccc(O)c4O[C@H]2[C@@H](O)C=C[C@H]3[C@H]1C5 [morphine]
Paw pressure latency (Male Sprague-Dawley rats [1]; [5]): 69.8 ± 4.8 grams
morphine withdrawal-induced mechanical hyperalgesia (Male Sprague-Dawley rats [1]; [6]): led to withdrawal-induced thermal and mechanical hyperalgesia
anti-nociceptive tolerance to acute intrathecal morphine (5 micrograms) (Male Sprague-Dawley rats [2]): demonstrated anti-nociceptive tolerance
IL-6 mRNA at the L5 lumbar spinal cord (IL-6 mRNA): significantly increased
IL-6 mRNA at the L5 lumbar spinal cord (IL-6 mRNA; listed as Morphine): 1.85 ± 0.16
GFAP mRNA levels at the L5 lumbar spinal cord (GFAP mRNA): significant increases
Tail-flick latency (Male Sprague-Dawley rats [3]; [5]): 3.7 ± 0.2 s
morphine withdrawal-induced noxious thermal hyperalgesia (Male Sprague-Dawley rats [3]; [6]): led to withdrawal-induced thermal and mechanical hyperalgesia
Mac-1 mRNA levels at the L5 lumbar spinal cord (Mac-1 mRNA): significant increases
morphine withdrawal-induced mechanical allodynia (Male Sprague-Dawley rats [4]; [6]): led to withdrawal-induced thermal and mechanical hyperalgesia and mechanical allodynia
Mechanical allodynia (2 grams) (Male Sprague-Dawley rats [4]; number of foot withdrawals, 2 grams von Frey filament, morphine 10 mg/kg s.c. twice daily 5 days and/or propentofylline 10 micrograms intrathecally): 3.9 ± 0.5
Mechanical allodynia (12 grams) (Male Sprague-Dawley rats [4]; number of foot withdrawals, 12 grams von Frey filament, morphine 10 mg/kg s.c. twice daily 5 days and/or propentofylline 10 micrograms intrathecally): 6.9 ± 0.7
IL-1β mRNA at the L5 lumbar spinal cord (IL-1β mRNA): significantly increased
IL-1β mRNA at the L5 lumbar spinal cord (IL-1β mRNA; listed as Morphine): 1.92 ± 0.14
IL-6 protein level at the L5 lumbar spinal cord (IL-6 protein): significantly increased
IL-6 protein level at the L5 lumbar spinal cord (IL-6 protein; listed as Morphine): 359 ± 62.4
TNF-α protein level at the L5 lumbar spinal cord (TNF-α protein): not significantly increased
TNF-α protein level at the L5 lumbar spinal cord (TNF-α protein; listed as Morphine): 36.6 ± 5.6
IL-1β protein level at the L5 lumbar spinal cord (IL-1β protein): significantly increased
IL-1β protein level at the L5 lumbar spinal cord (IL-1β protein; listed as Morphine): 73.5 ± 9.2
